Where two headings read alike, the source gives them in different places.
Columns and labels:
hA2a/CHO = hA2a/CHO (Homo sapiens (Human), UniProt P29274); experiment: cAMP inhibition assay in hA2a/CHO cells, 10 μM adenosine; type: cell-based; details: read-out: cAMP & FLIPR IC50 (nM) hA2a;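 further: compounds added to cells 30 min ahead of adenosine, then a further 30 min at 37 °C with adenosine before cAMP detection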
mA2a/CHO = mA2a/CHO (Mus musculus (Mouse), UniProt Q60613); experiment: cAMP inhibition assay in mA2a/CHO cells, 10 μM adenosine; type: cell-based; details: read-out: cAMP & FLIPR IC50 (nM) mA2a;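 further: compounds preincubated 30 min at 37 °C before the adenosine challenge, then 30 min further stimulation, readout after 60 min detection reagent incubation at room temperature in 384-well plates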
hA2a = hA2a (Homo sapiens (Human), UniProt P29274); experiment: Radioligand binding to hA2a membrane with [3H]-CGS21680; details: read-out: Binding Affinity (IC50 nM) hA2a
Text: (§1) The empty boxes in the tables below indicate data not collected yet.

[1] = biological target: hADORA1/CHO (hA1 expressing) cells (Homo sapiens (Human), UniProt P30542); experiment: cell-based; details: 10 μM adenosine
hA2b = hA2b (Homo sapiens (Human), UniProt P29275); experiment: Radioligand binding to hA2b membrane with [3H]-DPCPX; details: read-out: Binding Affinity (IC50 nM) hA2b
Text: as §1

hA3/CHO = hA3/CHO (Homo sapiens (Human), UniProt P0DMS8); experiment: cell-based
Experimental: hA2a/CHO, hA2b/CHO, hA3/CHO and mA2a/CHO (Genscript) were plated at 5×10^3 cells/well into 384-well polystyrene plates at the day of experiment. Compounds were pre-incubated with cells for 30 min at 37° C., 5% CO2. Then 10 μM adenosine was added to the cells and incubated for 30 min at 37° C., 5% CO2. Detection reagent (CISBIO) was added and the plates were incubated for 60 min at room temperature. The signal was captured by Envision.

hA1 = hA1 (Homo sapiens (Human), UniProt P30542); details: hA1 membrane, [3H]-DPCPX; read-out: Binding Affinity (IC50 nM) hA1
Text: as §1

hA2b/CHO = hA2b/CHO (Homo sapiens (Human), UniProt P29275); experiment: cAMP inhibition assay in hA2b/CHO cells, 10 μM adenosine; type: cell-based; details: read-out: cAMP & FLIPR IC50 (nM) hA2b;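 further: cells exposed to compound 30 min at 37 °C, then stimulated with adenosine a further 30 min, cAMP read after 60 min at room temperature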
[2] = FLIPR inhibition, read-out: cAMP & FLIPR IC50 (nM) hA1
[3] = cAMP & FLIPR IC50 (nM) hA1, FLIPR inhibition

hA2a/CHO, sequence (P29274 whole entry): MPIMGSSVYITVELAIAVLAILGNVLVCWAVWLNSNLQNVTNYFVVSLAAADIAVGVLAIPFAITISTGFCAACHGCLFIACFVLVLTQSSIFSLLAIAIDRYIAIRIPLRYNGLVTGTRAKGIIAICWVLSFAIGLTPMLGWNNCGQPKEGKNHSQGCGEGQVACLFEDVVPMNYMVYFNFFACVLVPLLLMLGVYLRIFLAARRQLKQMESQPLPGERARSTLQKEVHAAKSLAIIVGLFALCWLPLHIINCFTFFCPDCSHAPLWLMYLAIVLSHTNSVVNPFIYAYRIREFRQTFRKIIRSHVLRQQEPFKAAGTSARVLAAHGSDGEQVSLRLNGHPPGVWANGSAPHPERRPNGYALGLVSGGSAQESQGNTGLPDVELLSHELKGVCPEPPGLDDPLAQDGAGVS
hA2a, sequence (P29274 whole entry): as above
hA2b/CHO, sequence (P29275 whole entry): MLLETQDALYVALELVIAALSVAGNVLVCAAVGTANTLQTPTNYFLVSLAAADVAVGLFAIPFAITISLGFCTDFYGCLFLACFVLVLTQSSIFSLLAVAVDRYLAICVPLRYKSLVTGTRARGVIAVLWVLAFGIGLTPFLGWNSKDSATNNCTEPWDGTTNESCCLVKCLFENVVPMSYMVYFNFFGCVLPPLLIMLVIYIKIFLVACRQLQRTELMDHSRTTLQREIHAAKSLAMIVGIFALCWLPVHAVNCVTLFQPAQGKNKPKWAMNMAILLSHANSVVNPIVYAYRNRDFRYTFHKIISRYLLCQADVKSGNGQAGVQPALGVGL
mA2a/CHO, sequence (Q60613 whole entry): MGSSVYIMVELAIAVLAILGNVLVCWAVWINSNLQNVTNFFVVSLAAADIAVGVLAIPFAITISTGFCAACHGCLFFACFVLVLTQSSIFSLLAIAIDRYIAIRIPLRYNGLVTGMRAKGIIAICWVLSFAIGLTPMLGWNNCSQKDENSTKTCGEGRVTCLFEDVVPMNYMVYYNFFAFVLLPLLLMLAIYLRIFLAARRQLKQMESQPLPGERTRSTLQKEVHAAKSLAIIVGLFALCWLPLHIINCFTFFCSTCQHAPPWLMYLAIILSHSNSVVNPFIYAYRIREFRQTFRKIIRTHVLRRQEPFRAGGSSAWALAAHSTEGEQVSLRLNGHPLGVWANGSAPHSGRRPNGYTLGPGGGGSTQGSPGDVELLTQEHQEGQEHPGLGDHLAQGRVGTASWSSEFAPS
hADORA1/CHO (hA1 expressing) cells, sequence (P30542 whole entry): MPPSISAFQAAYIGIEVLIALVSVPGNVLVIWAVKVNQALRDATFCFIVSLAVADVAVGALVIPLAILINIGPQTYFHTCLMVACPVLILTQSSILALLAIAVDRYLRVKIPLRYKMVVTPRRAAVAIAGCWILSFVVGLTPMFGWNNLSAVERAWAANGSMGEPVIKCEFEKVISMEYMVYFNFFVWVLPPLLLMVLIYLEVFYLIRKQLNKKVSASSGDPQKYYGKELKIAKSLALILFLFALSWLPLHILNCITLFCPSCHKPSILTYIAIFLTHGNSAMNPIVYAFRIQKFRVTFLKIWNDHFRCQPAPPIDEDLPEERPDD
hA1, sequence (P30542 whole entry): as above
hA3/CHO, sequence (P0DMS8 whole entry): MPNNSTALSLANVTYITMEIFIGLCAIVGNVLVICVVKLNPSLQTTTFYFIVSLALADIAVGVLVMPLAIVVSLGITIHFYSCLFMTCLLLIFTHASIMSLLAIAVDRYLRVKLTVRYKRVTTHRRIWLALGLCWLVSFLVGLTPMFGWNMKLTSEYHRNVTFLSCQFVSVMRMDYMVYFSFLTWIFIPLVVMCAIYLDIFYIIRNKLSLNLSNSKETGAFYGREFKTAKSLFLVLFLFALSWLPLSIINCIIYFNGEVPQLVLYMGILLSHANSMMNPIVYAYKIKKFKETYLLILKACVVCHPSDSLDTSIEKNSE
hA2b, sequence (P29275 whole entry): as the sequence (P29275 whole entry) above

With `Cn1cc(-c2nc(C(=O)NCc3c(F)cccc3F)c(N)nc2-c2ncco2)ccc1=O` [Example 3, 3-amino-N-(2,6-difluorobenzyl)-6-(1-methyl-6-oxo-1,6-dihydropyridin-3-yl)-5-(oxazol-2-yl)pyrazine-2-carboxamide] the IC50 (hA2a/CHO) was 4.5 nM, the IC50 (mA2a/CHO) was 5.8 nM and the IC50 (hA2a) was 1.9 nM. The IC50 [1, 2] was 159 nM, the IC50 (hA2b) was 1.4 nM and the IC50 (hA3/CHO) was ≥ 10000 nM. The IC50 (hA1) was 16 nM and the IC50 (hA2b/CHO) was 53 nM.

For `COCCNC(=O)c1nc(-c2ccc3ncc(C)n3c2)c(-c2ncco2)nc1N` [Example 147, 3-amino-N-(2-methoxyethyl)-6-(3-methylimidazo[1,2-a]pyridin-6-yl)-5-(oxazol-2-yl)pyrazine-2-carboxamide], the IC50 (hA2a/CHO) was 3.8 nM, the IC50 (mA2a/CHO) was 15 nM and the IC50 (hA2a) was 5.6 nM. It also gave an IC50 [1, 2] of 2380 nM, an IC50 (hA1) of 108 nM and an IC50 (hA2b/CHO) of 134 nM.

For `CN(C)c1cccnc1CNC(=O)c1nc(-c2ccc(=O)n(C)c2)c(-c2ncco2)nc1N` [Example 16, 3-amino-N-((3-(dimethylamino)pyridin-2-yl)methyl)-6-(1-methyl-6-oxo-1,6-dihydropyridin-3-yl)-5-(oxazol-2-yl)pyrazine-2-carboxamide], the IC50 (hA2a/CHO) was 5.3 nM, the IC50 (mA2a/CHO) was 8.3 nM and the IC50 (hA2a) was 3.9 nM. The IC50 [1, 2] was 32 nM, the IC50 (hA1) was 15 nM and the IC50 (hA2b/CHO) was 336 nM.

With `Nc1nc(-c2ncco2)c(-c2ccc3nccn3c2)nc1C(=O)NCc1ncccc1F` [Example 43, 3-amino-N-((3-fluoropyridin-2-yl)methyl)-6-(imidazo[1,2-a]pyridin-6-yl)-5-(oxazol-2-yl)pyrazine-2-carboxamide] the IC50 (hA2a/CHO) was 49 nM, the IC50 (mA2a/CHO) was 240 nM and the IC50 (hA2a) was 21 nM. For the same compound, the IC50 [1, 3] was 10000 nM, the IC50 (hA1) was 245 nM and the IC50 (hA2b/CHO) was 159 nM.

Compound `Cc1cnc2ccc(-c3nc(C(=O)NC[C@H]4CCCO4)c(N)nc3-c3ncco3)cn12` [Example 126, (R)-3-amino-6-(3-methylimidazo[1,2-a]pyridin-6-yl)-5-(oxazol-2-yl)-N-((tetrahydrofuran-2-yl)methyl)pyrazine-2-carboxamide] has an IC50 (hA2a/CHO) of 1.6 nM, an IC50 (mA2a/CHO) of 7 nM and an IC50 (hA2a) of 1.4 nM. It also gave an IC50 [1, 3] of 1230 nM, an IC50 (hA1) of 78 nM and an IC50 (hA2b/CHO) of 77 nM.

`Cc1cnc2ccc(-c3nc(C(=O)NC[C@@H]4CCOC4)c(N)nc3-c3ncco3)cn12` [Example 137, (S)-3-amino-6-(3-methylimidazo[1,2-a]pyridin-6-yl)-5-(oxazol-2-yl)-N-((tetrahydrofuran-3-yl)methyl)pyrazine-2-carboxamide] showed an IC50 (hA2a/CHO) of 1.7 nM, an IC50 (mA2a/CHO) of 34 nM and an IC50 (hA2a) of 3.9 nM. For the same compound, the IC50 [1, 3] was 10000 nM, the IC50 (hA1) was 195 nM and the IC50 (hA2b/CHO) was 464 nM.

For `Cc1cnc2ccc(-c3nc(C(=O)NC[C@H]4CCOC4)c(N)nc3-c3ncco3)cn12` [Example 136, (R)-3-amino-6-(3-methylimidazo[1,2-a]pyridin-6-yl)-5-(oxazol-2-yl)-N-((tetrahydrofuran-3-yl)methyl)pyrazine-2-carboxamide], the IC50 (hA2a/CHO) was 1.8 nM, the IC50 (mA2a/CHO) was 27 nM and the IC50 (hA2a) was 1.7 nM. The IC50 [1, 3] was 10000 nM, the IC50 (hA1) was 182 nM and the IC50 (hA2b/CHO) was 512 nM.

Work on `Nc1nc(-c2ncco2)c(-c2ccc3ncnn3c2)nc1C(=O)NCc1ncccc1F` [Example 100, 6-([1,2,4]triazolo[1,5-a]pyridin-6-yl)-3-amino-N-((3-fluoropyridin-2-yl)methyl)-5-(oxazol-2-yl)pyrazine-2-carboxamide] yielded an IC50 (hA2a/CHO) of 76 nM, an IC50 (mA2a/CHO) of 4530 nM and an IC50 (hA2a) of 8.4 nM. The IC50 [1, 3] was 10000 nM, the IC50 (hA1) was 685 nM and the IC50 (hA2b/CHO) was 312 nM.

Work on `Nc1cccc(CNC(=O)c2nc(-c3ccc4nccn4c3)c(-c3ncco3)nc2N)n1` [Example 48, 3-amino-N-[(6-aminopyridin-2-yl)methyl]-6-[imidazo[1,2-a]pyridin-6-yl]-5-(1,3-oxazol-2-yl) pyrazine-2-carboxamide] yielded an IC50 (hA2a/CHO) of 19 nM, an IC50 (mA2a/CHO) of 256 nM and an IC50 (hA2a) of 3.1 nM. For the same compound, the IC50 [1, 2] was 7160 nM, the IC50 (hA1) was 67 nM and the IC50 (hA2b/CHO) was 84 nM.

For `Cn1cc(-c2nc(C(=O)NC(CO)c3c(F)cccc3F)c(N)nc2-c2ncco2)ccc1=O` (stereo not drawn) [Example 98, 3-amino-N-(1-(2,6-difluorophenyl)-2-hydroxyethyl)-6-(1-methyl-6-oxo-1,6-dihydropyridin-3-yl)-5-(oxazol-2-yl) pyrazine-2-carboxamide], the IC50 (hA2a/CHO) was 21 nM, the IC50 (mA2a/CHO) was 64 nM and the IC50 (hA2a) was 9.3 nM. For the same compound, the IC50 [1, 3] was 70 nM, the IC50 (hA1) was 10 nM and the IC50 (hA2b/CHO) was 126 nM.

Compound `CNc1cccc(CNC(=O)c2nc(-c3ccc(=O)n(C)c3)c(-c3ncco3)nc2N)n1` [Example 23, 3-amino-6-(1-methyl-6-oxo-1,6-dihydropyridin-3-yl)-N-[[6-(methylamino)pyridin-2-yl]methyl]-5-(1,3-oxazol-2-yl)pyrazine-2-carboxamide] has an IC50 (hA2a/CHO) of 25 nM, an IC50 (mA2a/CHO) of 64 nM and an IC50 (hA2a) of 3.5 nM. The IC50 [1, 2] was 281 nM, the IC50 (hA2b) was 2.9 nM and the IC50 (hA3/CHO) was ≥ 10000 nM. It also gave an IC50 (hA2b/CHO) of 880 nM.

`Cc1cnc2ccc(-c3nc(C(=O)NC(C)C)c(N)nc3-c3ncco3)cn12` [Example 133, 3-amino-N-isopropyl-6-(3-methyl-imidazo[1,2-a]pyridin-6-yl)-5-(oxazol-2-yl)pyrazine-2-carboxamide] gave an IC50 (hA2a/CHO) of 5.9 nM, an IC50 (mA2a/CHO) of 19 nM and an IC50 (hA2a) of 2.7 nM. It also gave an IC50 [1, 3] of 10000 nM, an IC50 (hA1) of 271 nM and an IC50 (hA2b/CHO) of 554 nM.

From patent publication US10898481B2 (priority 2018, dated 2021)
